# In patent publication US11739101B2, “Bifunctional degraders of hematopoietic progenitor kinase and therapeutic uses thereof” (Nurix Therapeutics, Inc., priority 2020, dated 2023):
# Target: T1, HPK1 (Homo sapiens, UniProt Q92918)
# T1 construct: A HiBiT tag was introduced by CRISPR on the N terminus of HPK1 in Jurkat cells; host or cells: Jurkat (ATCC TIB-152), monoclonal CRISPR HiBiT knock-in line
# Assay: HPK1 Cellular HiBiT Degradation Assay
# Assay type: cell-based
# Settings: HiBiT-tagged HPK1 Jurkat cells, 24 hours, 10 uM to 0.1 nM; Dmax = 100 minus lowest % HPK1 remaining vs DMSO vehicle
# How it was run: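 Dmax is derived from four-parameter curves of % HPK1 remaining, as 100 minus the lowest value, normalized to DMSO-treated cells with parental Jurkat background subtracted. HiBiT-HPK1 knock-in Jurkat cells got compound for 24 hours (final 10 uM to 0.1 nM, 11 points) before lytic HiBiT luminescence. Cytotoxicity was checked on parallel CellTiter-Glo plates.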
# T1 sequence (Q92918 whole entry): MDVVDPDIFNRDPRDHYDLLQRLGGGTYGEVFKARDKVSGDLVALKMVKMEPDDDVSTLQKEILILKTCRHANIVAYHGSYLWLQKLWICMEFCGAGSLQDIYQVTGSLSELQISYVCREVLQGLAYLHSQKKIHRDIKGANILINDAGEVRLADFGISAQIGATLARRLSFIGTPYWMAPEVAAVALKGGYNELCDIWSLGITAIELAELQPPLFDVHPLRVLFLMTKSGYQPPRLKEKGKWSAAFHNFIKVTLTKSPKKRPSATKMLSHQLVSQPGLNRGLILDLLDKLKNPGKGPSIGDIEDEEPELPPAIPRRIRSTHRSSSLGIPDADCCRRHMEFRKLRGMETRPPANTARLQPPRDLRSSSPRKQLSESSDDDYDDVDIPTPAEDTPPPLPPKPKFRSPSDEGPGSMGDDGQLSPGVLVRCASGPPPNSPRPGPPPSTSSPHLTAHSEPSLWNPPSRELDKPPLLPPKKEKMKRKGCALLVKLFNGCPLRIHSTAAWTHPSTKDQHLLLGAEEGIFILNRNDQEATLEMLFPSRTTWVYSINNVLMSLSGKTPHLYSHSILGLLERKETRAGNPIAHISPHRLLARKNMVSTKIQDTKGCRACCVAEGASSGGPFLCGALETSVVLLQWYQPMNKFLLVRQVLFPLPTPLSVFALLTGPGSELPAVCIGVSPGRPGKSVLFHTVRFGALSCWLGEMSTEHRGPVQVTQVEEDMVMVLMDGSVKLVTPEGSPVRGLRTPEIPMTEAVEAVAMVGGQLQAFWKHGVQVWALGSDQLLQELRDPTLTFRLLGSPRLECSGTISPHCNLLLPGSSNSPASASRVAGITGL
row,Dmax [%],SMILES
1,> 65,"Cc1cc(F)c(Nc2nc(-c3ccc4c(c3)N([C@H]3C[C@@H](N5CCCCC5)C3)C(=O)C43CCN(C(=O)CC4CCCN(CC5CCN(c6cccc7c6C(=O)N(C6CCC(=O)NC6=O)C7=O)C5)C4)CC3)cc3ncn(C(C)C)c23)cc1C(=O)NC(C)C (stereo partly drawn) [Example 31, 5-{[6-(1′-{2-[(3S)-1-{[1-{2-[2,6-dioxopiperidin-3-yl]-1,3-dioxo-2,3-dihydro-1H-isoindol-4-yl}pyrrolidin-3-yl]methyl}piperidin-3-yl]acetyl}-2-oxo-1-[(1s,3s)-3-(piperidin-1-yl)cyclobutyl]-1,2-dihydrospiro[indole-3,4′-piperidin]-6-yl)-3-(propan-2-yl)-3H-imidazo[4,5-c]pyridin-4-yl]amino}-4-fluoro-2-methyl-N-(propan-2-yl)benzamide]"
2,< 45,"Cc1cc(F)c(Nc2nc(-c3ccc4c(c3)N([C@H]3C[C@@H](N5CCCCC5)C3)C(=O)C43CCN(C(=O)[C@H]4CCN(C(=O)[C@H]5CC[C@H](Nc6cccc7c6C(=O)N(C6CCC(=O)NC6=O)C7=O)CC5)C4)CC3)cc3ncn(C(C)C)c23)cc1C(=O)NC(C)C (stereo partly drawn) [Example 87, 5-((6-(1′-((3S)-1-((1R,4S)-4-((2-(2,6-dioxopiperidin-3-yl)-1,3-dioxoisoindolin-4-yl)amino)cyclohexane-1-carbonyl)pyrrolidine-3-carbonyl)-2-oxo-1-((1s,3R)-3-(piperidin-1-yl)cyclobutyl)spiro[indoline-3,4′-piperidin]-6-yl)-3-isopropyl-3H-imidazo[4,5-c]pyridin-4-yl)amino)-4-fluoro-N-isopropyl-2-methylbenzamide]"
3,45 to 65,"Cc1cc(F)c(Nc2nc(-c3ccc4c(c3)N([C@H]3C[C@@H](N5CCCCC5)C3)C(=O)C43CCN(C(=O)[C@H]4CC[C@@H](C(=O)N5CCN(c6ccc7c(c6)C(=O)N(C6CCC(=O)NC6=O)C7=O)CC5)CC4)CC3)cc3ncn(C(C)C)c23)cc1C(=O)NC(C)C (stereo partly drawn) [Example 79, 5-((6-(1′-((1s,4S)-4-(4-(2-(2,6-dioxopiperidin-3-yl)-1,3-dioxoisoindolin-5-yl)piperazine-1-carbonyl)cyclohexane-1-carbonyl)-2-oxo-1-((1s,3s)-3-(piperidin-1-yl)cyclobutyl)spiro[indoline-3,4′-piperidin]-6-yl)-3-isopropyl-3H-imidazo[4,5-c]pyridin-4-yl)amino)-4-fluoro-N-isopropyl-2-methylbenzamide]"
4,> 65,"Cc1cc(F)c(Nc2nc(-c3ccc4c(c3)N([C@H]3C[C@@H](N5CCCCC5)C3)C(=O)C43CCN(C(=O)c4ccc(C(=O)N5CCN(c6ccc7c(c6)C(=O)N(C6CCC(=O)NC6=O)C7=O)CC5C)cc4)CC3)cc3ncn(C(C)C)c23)cc1C(=O)NC(C)C (stereo partly drawn) [Example 72, 5-[(6-{1′-[4-(4-{2-[2,6-dioxopiperidin-3-yl]-1,3-dioxo-2,3-dihydro-1H-isoindol-5-yl}-2-methylpiperazine-1-carbonyl)benzoyl]-2-oxo-1-[(1s,3s)-3-(piperidin-1-yl)cyclobutyl]-1,2-dihydrospiro[indole-3,4′-piperidin]-6-yl}-3-(propan-2-yl)-3H-imidazo[4,5-c]pyridin-4-yl)amino]-4-fluoro-2-methyl-N-(propan-2-yl)benzamide]"
5,45 to 65,"Cc1cc(F)c(Nc2nc(-c3ccc4c(c3)N([C@H]3C[C@@H](N5CCCCC5)C3)C(=O)C43CCN(C(=O)c4ccc(CC5CCN(c6cccc7c6C(=O)N(C6CCC(=O)NC6=O)C7=O)CC5)cc4)CC3)cc3ncn(C(C)C)c23)cc1C(=O)NC(C)C (stereo partly drawn) [Example 59, 5-[(6-{1′-[4-({1-[2-(2,6-dioxopiperidin-3-yl)-1,3-dioxo-2,3-dihydro-1H-isoindol-4-yl]piperidin-4-yl}Methyl)benzoyl]-2-oxo-1-[(1s,3s)-3-(piperidin-1-yl)cyclobutyl]-1,2-dihydrospiro[indole-3,4′-piperidin]-6-yl}-3-(propan-2-yl)-3H-imidazo[4,5-c]pyridin-4-yl)amino]-4-fluoro-2-methyl-N-(propan-2-yl)benzamide]"
6,45 to 65,"Cc1cc(F)c(Nc2nc(-c3ccc4c(c3)N([C@H]3C[C@@H](N5CCCCC5)C3)C(=O)C43CCN(C(=O)CCOCCOCCOCCOCCOCCNc4cccc5c4C(=O)N(C4CCC(=O)NC4=O)C5=O)CC3)cc3ncn(C(C)C)c23)cc1C(=O)NC(C)C (stereo partly drawn) [Example 12, 5-((6-(1′-(1-((2-(2,6-dioxopiperidin-3-yl)-1,3-dioxoisoindolin-4-yl)amino)-3,6,9,12,15-pentaoxaoctadecan-18-oyl)-2-oxo-1-((1s,3s)-3-(piperidin-1-yl)cyclobutyl)spiro[indoline-3,4′-piperidin]-6-yl)-3-isopropyl-3H-imidazo[4,5-c]pyridin-4-yl)amino)-4-fluoro-N-isopropyl-2-methylbenzamide]"
7,45 to 65,"Cc1cc(F)c(Nc2nc(-c3ccc4c(c3)N([C@H]3C[C@@H](N5CCCCC5)C3)C(=O)C43CCN(C(=O)c4ccc(CN5CCN(c6ccc7c(c6)C(=O)N(C6CCC(=O)NC6=O)C7=O)CC5)cc4)CC3)cc3ncn(C(C)C)c23)cc1C(=O)NC(C)C (stereo partly drawn) [Example 91, 5-[(6-{1′-[4-({4-[2-(2,6-dioxopiperidin-3-yl)-1,3-dioxoisoindol-5-yl]piperazin-1-yl}methyl)benzoyl]-2-oxo-1-[(1s,3s)-3-(piperidin-1-yl)cyclobutyl]spiro[indole-3,4′-piperidin]-6-yl}-3-isopropylimidazo[4,5-c]pyridin-4-yl)amino]-4-fluoro-N-isopropyl-2-methylbenzamide]"
8,> 65,"Cc1cc(F)c(Nc2nc(-c3ccc4c(c3)N([C@H]3C[C@@H](N5CCCCC5)C3)C(=O)C43CCN(C(=O)C4CCN(CC5CCN(c6ccc7c(c6)C(=O)N(C6CCC(=O)NC6=O)C7=O)CC5)CC4)CC3)cc3ncn(C(C)C)c23)cc1C(=O)NC(C)C (stereo partly drawn) [Example 45, 5-{[6-(1′-{1-[(1-{2-[2,6-dioxopiperidin-3-yl]-1,3-dioxo-2,3-dihydro-1H-isoindol-5-yl}piperidin-4-yl)methyl]piperidine-4-carbonyl}-2-oxo-1-[(1s,3s)-3-(piperidin-1-yl)cyclobutyl]-1,2-dihydrospiro[indole-3,4′-piperidin]-6-yl)-3-(propan-2-yl)-3H-imidazo[4,5-c]pyridin-4-yl]amino}-4-fluoro-2-methyl-N-(propan-2-yl)benzamide]"
9,45 to 65,"Cc1cc(F)c(Nc2nc(-c3ccc4c(c3)N([C@H]3C[C@@H](N5CCCCC5)C3)C(=O)C43CCN(C(=O)[C@@H]4CCN(C(=O)C[C@H]5CC[C@H](Nc6cccc7c6C(=O)N(C6CCC(=O)NC6=O)C7=O)CC5)C4)CC3)cc3ncn(C(C)C)c23)cc1C(=O)NC(C)C (stereo partly drawn) [Example 82, 5-((6-(1′-((3R)-1-(2-((1R,4R)-4-((2-(2,6-dioxopiperidin-3-yl)-1,3-dioxoisoindolin-4-yl)amino)cyclohexyl)acetyl)pyrrolidine-3-carbonyl)-2-oxo-1-((1s,3s)-3-(piperidin-1-yl)cyclobutyl)spiro[indoline-3,4′-piperidin]-6-yl)-3-isopropyl-3H-imidazo[4,5-c]pyridin-4-yl)amino)-4-fluoro-N-isopropyl-2-methylbenzamide]"
10,45 to 65,"Cc1cc(F)c(Nc2nc(-c3ccc4c(c3)N([C@H]3C[C@@H](N5CCCCC5)C3)C(=O)C43CCN(C(=O)[C@@H]4CCN(C(=O)c5cnc(N6CCN(c7cccc8c7C(=O)N(C7CCC(=O)NC7=O)C8=O)CC6)cn5)C4)CC3)cc3ncn(C(C)C)c23)cc1C(=O)NC(C)C (stereo partly drawn) [Example 86, 5-((6-(1′-((3R)-1-(5-(4-(2-(2,6-dioxopiperidin-3-yl)-1,3-dioxoisoindolin-4-yl)piperazin-1-yl)pyrazine-2-carbonyl)pyrrolidine-3-carbonyl)-2-oxo-1-((1s,3s)-3-(piperidin-1-yl)cyclobutyl)spiro[indoline-3,4′-piperidin]-6-yl)-3-isopropyl-3H-imidazo[4,5-c]pyridin-4-yl)amino)-4-fluoro-N-isopropyl-2-methylbenzamide]"
11,45 to 65,"Cc1cc(F)c(Nc2nc(-c3ccc4c(c3)N([C@H]3C[C@@H](N5CCCCC5)C3)C(=O)C43CCN(C(=O)CN4CCN(CC(=O)N[C@H](C(=O)N5C[C@H](O)C[C@H]5C(=O)N[C@@H](C)c5ccc(-c6scnc6C)cc5)C(C)(C)C)CC4)CC3)cc3ncn(C(C)C)c23)cc1C(=O)NC(C)C [Example 18, (2S,4R)-1-((S)-2-(2-(4-(2-(6-(4-((2-fluoro-5-(isopropylcarbamoyl)-4-methylphenyl)amino)-3-isopropyl-3H-imidazo[4,5-c]pyridin-6-yl)-2-oxo-1-((1s,3s)-3-(piperidin-1-yl)cyclobutyl)spiro[indoline-3,4′-piperidin]-1′-yl)-2-oxoethyl)piperazin-1-yl)acetamido)-3,3-dimethylbutanoyl)-4-hydroxy-N—((S)-1-(4-(4-methylthiazol-5-yl)phenyl)ethyl)pyrrolidine-2-carboxamide]"

row,SMILES,Dmax [%]
1,"Cc1cc(F)c(Nc2nc(-c3ccc4c(c3)N([C@H]3C[C@@H](N5CCCCC5)C3)C(=O)C43CCN(CCOCCOCCOCCOCCOCCOCCOCCNc4cccc5c4C(=O)N(C4CCC(=O)NC4=O)C5=O)CC3)cc3ncn(C(C)C)c23)cc1C(=O)NC(C)C (stereo partly drawn) [Example 43, 5-[(6-{1′-[23-({2-[2,6-dioxopiperidin-3-yl]-1,3-dioxo-2,3-dihydro-1H-isoindol-4-yl}amino)-3,6,9,12,15,18,21-heptaoxatricosan-1-yl]-2-oxo-1-[(1s,3s)-3-(piperidin-1-yl)cyclobutyl]-1,2-dihydrospiro[indole-3,4′-piperidin]-6-yl}-3-(propan-2-yl)-3H-imidazo[4,5-c]pyridin-4-yl)amino]-4-fluoro-2-methyl-N-(propan-2-yl)benzamide]",> 65
